Source: PMC10917816, “Synthesis and evaluation of coumarin derivatives on antioxidative, tyrosinase inhibitory activities, melanogenesis, and in silico investigations” (Scientific Reports, 2024)
“Also recorded” adds a separate entry of the source. Read-outs that look alike come from different tables or passages of the source.

What was measured:
[1] = Lipid peroxidation inhibitory activity (thiobarbituric acid test, linoleic acid); conditions: at 1 mg/ml of tested compound; TBA test
mushroom tyrosinase [2] = biological target: T1, mushroom tyrosinase (Agaricus bisporus, UniProt C7FF04); assay: Mushroom tyrosinase activity assay (L-DOPA substrate); assay type: biochemical; conditions: for activity at 100 µM: <100 inhibitor, >100 activator; for Activity (inhibitor or activator of mushroom tyrosinase): classified from %activity at 100 µM (<100 inhibitor, >100 activator)
Procedure: Samples were dissolved in a mixture of DMSO and the phosphate buffer solution (40%DMSO, 20 µL) and were added into a 96-well microplate filled with phosphate buffer (20 mM, pH 6.8, 140 µL), mushroom tyrosinase (30 U/mL, 20 µL). After 10 min of pre-incubation at room temperature (25 °C), 20 µL of a 0.85 mM L-DOPA (3,4-dihydroxyphenylalanine) solution in phosphate buffer was added to the mixture. (Final concentration of the tested compound equaled 100 µM and final DMSO content equaled 4%). […] Instead of an inhibitor solution, phosphate buffer was added as the negative control. The percentage of tyrosinase activity was calculated as follows: %Activity = (Sample) × 100/Blank, where Blank = (OD of Blank solution at 10 min)—(OD of Blank solution at 0 min) and Sample = (OD of Sample solution at 10 min)—(OD of Sample solution at 0 min). Each sample was analyzed in triplicate (n = 3). […] Each sample was examined in triplicate.
Target sequence in this assay (C7FF04 1-392): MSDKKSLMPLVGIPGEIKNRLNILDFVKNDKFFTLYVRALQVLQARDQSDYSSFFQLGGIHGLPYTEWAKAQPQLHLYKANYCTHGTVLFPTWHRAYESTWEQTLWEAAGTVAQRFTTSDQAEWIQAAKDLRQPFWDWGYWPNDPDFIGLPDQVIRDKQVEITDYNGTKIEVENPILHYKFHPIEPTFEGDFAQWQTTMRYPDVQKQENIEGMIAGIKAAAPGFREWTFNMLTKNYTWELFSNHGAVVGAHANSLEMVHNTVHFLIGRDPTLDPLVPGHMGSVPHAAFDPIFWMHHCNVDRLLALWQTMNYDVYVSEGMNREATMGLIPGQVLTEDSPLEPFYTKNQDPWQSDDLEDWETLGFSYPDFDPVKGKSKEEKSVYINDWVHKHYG

B16F10 cells = assay: Melanin content assay; assay type: cell-based, Mus musculus; conditions: 48 h
Procedure: Compound 13 and compound 14 were also determined for their melanogenesis activities in the B16F10 cells. Intracellular melanin content was measured. […] However, the increase in melanin content in the cells was lower than cells treated with 8-MOP (Fig. 8B).
The method for the melanin content assay was modified from Lee et al.[37]. B16F10 (8 × 10^4 cell/mL) cells were seeded in a 6-well plate and incubated at 37 °C in a 5% CO2 incubator for 24 h. The tested and reference compounds in various concentrations were mixed with α-melanocyte stimulating hormone (α-MSH, 10 nM) and added to the well. The cells were continuously incubated at 37 °C for 48 h. Then, the cells were washed twice with 10 mM phosphate buffer pH 7.4. 1 M NaOH (0.2 mL) was added to each well and warmed at 65 °C for 1 h. The mixture was centrifuged at 12,000 rpm for 10 min. The absorbance of the supernatant was measured at 405 nm. The percent melanin content in the treatment group was obtained from the absorbance and calculated as a percentage compared to the untreated group.

mushroom tyrosinase [3] = biological target: T1, mushroom tyrosinase; assay: Enzyme kinetic study (Lineweaver–Burk plot); assay type: biochemical; set-up: purchased Sigma-Aldrich or Merck AG; conditions: double-reciprocal (Lineweaver–Burk) plots
Procedure: Double-reciprocal plots were used to investigate the mechanisms of mushroom tyrosinase inhibition by compound 13 (Fig. 2).
Utilizing the same protocol as the tyrosinase activity assay, an enzyme kinetics study was conducted with compound 13. A Michaelis–Menten plot was generated by varying the substrate concentration (25–10,000 µM) and reaction rate under conditions with and without inhibitors. A Lineweaver–Burk plot was generated, and the inhibition mode of the inhibitor was determined based on the variation of Km and Vmax as the inhibitor concentration changed.
Target sequence in this assay (C7FF04 1-392 limits assumed): as the sequence (C7FF04 1-392) above

[4] = Cell viability assay (MTT); assay type: cell-based, Mus musculus; conditions: mouse, B16F10 melanoma cells
Procedure: (§1) B16F10 cells were incubated with compounds 13 (25–100 µM) and 14 (25–150 µM) for 48 h. KA (50–200 µM) and 8-MOP (50–150 µM) were used as reference compounds for the tyrosinase inhibitor and the activator, respectively. […] (%viability decreased to 50%).
(§2) B16F10 cells (ATCC-CRL-6475, USA) were cultured in Dulbecco’s modified eagle medium (DMEM) containing 10% fetal bovine serum (FBS), 100 U/mL penicillin, and 1 μg/mL streptomycin. Cell viability was evaluated using the MTT assay. B16F10 cells (5 × 10^3 cells/well) were cultured in a 96-well plate at 37 °C in a 5% CO2 incubator for 24 h. Tested compounds dissolved in DMSO/H2O (40% v/v) at different concentrations were added to sample wells, and the cells were further incubated at 37 °C in a 5% CO2 incubator for 48 h. Then, 50 µL of methylthiazolyldiphenyl-tetrazolium bromide (MTT) solution (0.5 mg/ml in 10 mM phosphate buffer, pH 7.4) was added to each well and left under a CO2 incubator for 2 h. The formazan crystals formed were dissolved in DMSO, and the absorbance was measured at 570 nm. Percent viability was calculated as the percent of surviving cells in the well compared to the control cells.

B16F10 melanoma cells = assay: Cell viability assay (MTT); assay type: cell-based, Mus musculus; conditions: 48 h
Procedure: as §1, §2

murine tyrosinase = conditions: broad range; cited from earlier work
[5] = at 100 µM of tested compound, read-out: Mushroom tyrosinase %Activity ± S.D.

activity at 100 µM (mushroom tyrosinase [2]; [5])	Activity (inhibitor or activator of mushroom tyrosinase) (mushroom tyrosinase [2])	melting point	SMILES	Lipid peroxidation %Inhibition ± S.D. [1]	other results
–	–	–	Cc1cc(C(C)(C)C)c(O)c(C(C)(C)C)c1 [BHT, butylated hydroxytoluene, reference compound]	62.90 ± 3.56%	–
86.2 ± 10.5%	Inhibitor	139 to 140 °C	CCOC(=O)C(Cc1ccccc1)NC(=O)Cc1cc(=O)oc2cc(O)ccc12 (stereo not drawn) [Compound 7, Ethyl 2-(2-(7-hydroxy-2-oxo-2H-chromen-4-yl)acetamido)-3-phenylpropanoate]	98.66 ± 1.57%	–
107 ± 9.89%	Activator	152 to 154 °C	CCOC(=O)C(Cc1ccc(O)cc1)NC(=O)Cc1cc(=O)oc2cc(O)ccc12 (stereo not drawn) [Compound 8, Ethyl 2-(2-(7-hydroxy-2-oxo-2H-chromen-4-yl)acetamido)-3-(4-hydroxyphenyl)propanoate]	44.32 ± 4.16%	–
98.3 ± 2.55%	Inhibitor	185 to 188 °C	CCOC(=O)C(Cc1cc2ccccc2[nH]1)NC(=O)Cc1cc(=O)oc2cc(O)ccc12 (stereo not drawn) [Compound 9, Ethyl 2-(2-(7-hydroxy-2-oxo-2H-chromen-4-yl)acetamido)-3-(1H-indol-2-yl)propanoate]	77.57 ± 4.11%	–
121 ± 7.51%	Activator	223 to 225 °C	O=C(Cc1cc(=O)oc2cc(O)ccc12)NCCc1ccc(O)cc1 [Compound 10, N-(4-hydroxyphenethyl)-2-(7-hydroxy-2-oxo-2H-chromen-4-yl)acetamide]	27.51 ± 2.78%	–
81.3 ± 3.72%	Inhibitor	144 to 145 °C	CCOC(=O)C(Cc1ccccc1)NC(=O)Cc1cc(=O)oc2cc(OC)ccc12 (stereo not drawn) [Compound 11, Ethyl 2-(2-(7-methoxy-2-oxo-2H-chromen-4-yl)acetamido)-3-phenylpropanoate]	87.68 ± 1.09%	–
113 ± 8.16%	Activator	154 to 155 °C	CCOC(=O)C(Cc1ccc(O)cc1)NC(=O)Cc1cc(=O)oc2cc(OC)ccc12 (stereo not drawn) [Compound 12, Ethyl 2-(2-(7-methoxy-2-oxo-2H-chromen-4-yl)acetamido)-3-(4-hydroxyphenyl) propanoate]	77.84 ± 3.25%	–
123 ± 13.4%	Activator	152 to 153 °C	COc1ccc2c(CC(=O)NCCc3ccc(O)cc3)cc(=O)oc2c1 [Compound 14, N-(4-hydroxyphenethyl)-2-(7-methoxy-2-oxo-2H-chromen-4-yl)acetamide]	26.66 ± 1.67%	Effect on melanogenesis (intracellular melanin content) in B16F10 cells (B16F10 cells; 25–100 μM, compared with 8-MOP): melanogenesis enhancement in B16F10 cells in a dose-dependent manner, however, inferior to the 8-MOP; also recorded: effectively enhanced melanogenesis in B16F10 cells in a dose-dependent manner; Cytotoxicity against B16F10 cells (B16F10 melanoma cells; 25–100 μM): did not show cytotoxicity
90.8 ± 12.4%	Inhibitor	184 to 185 °C	CCOC(=O)C(Cc1ccccc1)NC(=O)Cc1cc(=O)oc2cc(OC)c(O)cc12 (stereo not drawn) [Compound 15, Ethyl 2-(2-(6-hydroxy-7-methoxy-2-oxo-2H-chromen-4-yl)acetamido)-3-phenylpropanoate]	98.06 ± 0.54%	–
100 ± 3.13%	Activator	198 to 200 °C	CCOC(=O)C(Cc1ccc(O)cc1)NC(=O)Cc1cc(=O)oc2cc(OC)c(O)cc12 (stereo not drawn) [Compound 16, Ethyl 2-(2-(6-hydroxy-7-methoxy-2-oxo-2H-chromen-4-yl)acetamido)-3-(4-hydroxyphenyl) propanoate]	79.31 ± 2.77%	–
75.9 ± 8.95%	Inhibitor	173 to 174 °C	CCOC(=O)C(Cc1c[nH]c2ccccc12)NC(=O)Cc1cc(=O)oc2cc(OC)c(O)cc12 (stereo not drawn) [Compound 17]	91.84 ± 5.39%	–
115 ± 3.87%	Activator	227 to 228 °C	COc1cc2oc(=O)cc(CC(=O)NCCc3ccc(O)cc3)c2cc1O [Compound 18, N-(4-hydroxyphenethyl)-2-(6-hydroxy-7-methoxy-2-oxo-2H-chromen-4-yl)acetamide]	63.40 ± 0.89%	–
–	–	–	O=c1cc(CO)occ1O [KA, kojic acid]	–	Activity against murine tyrosinase (murine tyrosinase): > 100 µM

SMILES	activity at 100 µM (mushroom tyrosinase [2]; [5])	Activity (inhibitor or activator of mushroom tyrosinase) (mushroom tyrosinase [2])	melting point	Lipid peroxidation %Inhibition ± S.D. [1]	other results
COc1c2occc2cc2ccc(=O)oc12 [Compound 8-MOP, 8-methoxypsoralen, reference compound]	–	Activator	–	–	activity at 100 µM (mushroom tyrosinase [2]; read-out: Mushroom tyrosinase %Activity ± S.D., at 100 µM of tested compound): 101 ± 6.18%
CCOC(=O)C(Cc1c[nH]c2ccccc12)NC(=O)Cc1cc(=O)oc2cc(OC)ccc12 (stereo not drawn) [Compound 13]	51.1 ± 9.45%	Inhibitor	162 to 163 °C	67.88 ± 5.48%	Effect on melanogenesis (intracellular melanin content) in B16F10 cells (B16F10 cells; 25 μM, with α-MSH, compared with KA at 100 μM): inhibited melanogenesis equally to KA at 100 μM; Effect on melanogenesis (intracellular melanin content) in B16F10 cells (B16F10 cells; 50 μM, with α-MSH, compared with KA at 100 μM): suppressed melanogenesis in B16F10 cells with two times higher potency than KA; also recorded: suppressed melanogenesis with approximately two times higher potency than KA at 100 μM; also recorded: higher melanin suppression at a lower concentration (50 μM) than KA (100 μM); Mechanism of mushroom tyrosinase inhibition (mushroom tyrosinase [3]): uncompetitive inhibition; also recorded: uncompetitively inhibited the tyrosinase enzyme; also recorded: uncompetitive tyrosinase inhibitor; viability at 48 h, 75 µM ([4]; 75 µM): 50%; viability at 48 h ([4]; 25–50 µM): > 80%; Cytotoxicity against B16F10 cells (B16F10 melanoma cells; 25–50 μM): did not show cytotoxicity
